Data published in ChEMBL document CHEMBL3797190, “Development of 3,5-Dinitrobenzylsulfanyl-1,3,4-oxadiazoles and Thiadiazoles as Selective Antitubercular Agents Active Against Replicating and Nonreplicating Mycobacterium tuberculosis” (J Med Chem, 2016).
≈ marks a conversion by molar mass, not a printed value.

What was measured:
Klebsiella pneumoniae [1] = assay: Antibacterial activity against Klebsiella pneumoniae D 11750/08 after 24 to 48 hrs by broth microdilution method; assay type: functional
Aspergillus fumigatus = assay: Antifungal activity against Aspergillus fumigatus 231 after 24 to 48 hrs by broth microdilution method; assay type: functional
Pichia kudriavzevii = assay: Antifungal activity against Candida krusei E28 after 24 to 48 hrs by broth microdilution method; assay type: functional
Enterococcus faecalis = assay: Antibacterial activity against Enterococcus faecalis J 14365/08 after 24 to 48 hrs by broth microdilution method; assay type: functional
Mycobacterium avium [2] = assay: Antimycobacterial activity against Mycobacterium avium CNCTC My 330/88 after 14 days by microdilution method; assay type: functional; conditions: CNCTC My 330/88, 336 h
Staphylococcus aureus [3] = assay: Antibacterial activity against Staphylococcus aureus ATCC 6538 after 24 to 48 hrs by broth microdilution method; assay type: functional
[4] = system: Mycobacterium tuberculosis; assay: Antimycobacterial activity against Mycobacterium tuberculosis CNCTC My 331/88 after 21 days by microdilution method; assay type: functional; conditions: CNCTC My 331/88, 504 h
Lichtheimia corymbifera = assay: Antifungal activity against Absidia corymbifera 272 after 24 to 48 hrs by broth microdilution method; assay type: functional
Mycobacterium avium [5] = assay: Antimycobacterial activity against Mycobacterium avium CNCTC My 330/88 after 21 days by microdilution method; assay type: functional; conditions: CNCTC My 330/88, 504 h
Escherichia coli = assay: Antibacterial activity against Escherichia coli ATCC 8739 after 24 to 48 hrs by broth microdilution method; assay type: functional
Mycobacterium kansasii [6] = assay: Antimycobacterial activity against Mycobacterium kansasii CNCTC My 235/80 after 7 days by microdilution method; assay type: functional; conditions: CNCTC My 235/80, 168 h
Trichosporon asahii = assay: Antifungal activity against Trichosporon asahii 1188 after 24 to 48 hrs by broth microdilution method; assay type: functional
Candida albicans = assay: Antifungal activity against Candida albicans ATCC 44859 after 24 to 48 hrs by broth microdilution method; assay type: functional
Mycobacterium kansasii [7] = assay: Antimycobacterial activity against Mycobacterium kansasii CNCTC My 6509/96 after 21 days by microdilution method; assay type: functional; conditions: CNCTC My 6509/96, 504 h
Mycobacterium kansasii [8] = assay: Antimycobacterial activity against Mycobacterium kansasii CNCTC My 235/80 after 14 days by microdilution method; assay type: functional; conditions: CNCTC My 235/80, 336 h
Mycobacterium kansasii [9] = assay: Antimycobacterial activity against Mycobacterium kansasii CNCTC My 6509/96 after 14 days by microdilution method; assay type: functional; conditions: CNCTC My 6509/96, 336 h
Staphylococcus aureus [10] = assay: Antibacterial activity against methicillin-resistant Staphylococcus aureus H 5996/08 after 24 to 48 hrs by broth microdilution method; assay type: functional
Pseudomonas aeruginosa = assay: Antibacterial activity against Pseudomonas aeruginosa ATCC 9027 after 24 to 48 hrs by broth microdilution method; assay type: functional
[11] = system: Trichophyton mentagrophytes; assay: Antifungal activity against Trichophyton mentagrophytes 445 after 72 to 120 hrs by broth microdilution method; assay type: functional
Klebsiella pneumoniae [12] = assay: Antibacterial activity against ESBL producing Klebsiella pneumoniae J 14368/08 after 24 to 48 hrs by broth microdilution method; assay type: functional
[13] = system: Mycobacterium tuberculosis; assay: Antimycobacterial activity against Mycobacterium tuberculosis CNCTC My 331/88 after 14 days by microdilution method; assay type: functional; conditions: CNCTC My 331/88, 336 h
Mycobacterium kansasii [14] = assay: Antimycobacterial activity against Mycobacterium kansasii CNCTC My 235/80 after 21 days by microdilution method; assay type: functional; conditions: CNCTC My 235/80, 504 h
Candida tropicalis = assay: Antifungal activity against Candida tropicalis 156 after 24 to 48 hrs by broth microdilution method; assay type: functional
Nakaseomyces glabratus = assay: Antifungal activity against Candida glabrata 20/I after 24 to 48 hrs by broth microdilution method; assay type: functional
Mycobacterium kansasii [15] = assay: Antimycobacterial activity against Mycobacterium kansasii CNCTC My 6509/96 after 7 days by microdilution method; assay type: functional; conditions: CNCTC My 6509/96, 168 h
[16] = system: Staphylococcus epidermidis; assay: Antibacterial activity against Staphylococcus epidermidis H 6966/08 after 24 to 48 hrs by broth microdilution method; assay type: functional
[17] = Cytotoxicity against human HuH7 cells assessed as cell viability at 20 uM after 24 hrs by MTS assay; assay type: cell-based, Huh-7; conditions: read-out: Activity
HeLa [18] = assay: Cytotoxicity against human HeLa cells assessed as cell viability after 24 hrs by MTS assay; assay type: cell-based
Salmonella typhimurium [19] = assay: Mutagenic activity in Salmonella typhimurium TA98 assessed as reverse mutation at 30 uM by Ames test; assay type: toxicity, organism-based; conditions: salmonella enterica subsp. enterica serovar typhimurium
[20] = Cytotoxicity against MDCK2-MDR1 cells assessed as cell viability at 20 uM after 24 hrs by MTS assay; assay type: ADME, cell-based, Canis lupus familiaris, MDCK-II; conditions: dog, read-out: Activity
HeLa [21] = assay: Cytotoxicity against human HeLa cells assessed as cell viability after 48 hrs by MTS assay; assay type: cell-based
[22] = Cytotoxicity against human HeLa cells assessed as cell viability at 20 uM after 48 hrs by MTS assay; assay type: cell-based; conditions: read-out: Activity
[23] = Cytotoxicity against human HuH7 cells assessed as cell viability after 24 hrs by MTS assay; assay type: cell-based; conditions: Huh-7, 24 h
Salmonella typhimurium [24] = assay: Mutagenic activity in Salmonella typhimurium TA100 assessed as reverse mutation at 30 uM by Ames test; assay type: toxicity, organism-based; conditions: salmonella enterica subsp. enterica serovar typhimurium
[25] = Cytotoxicity against human HuH7 cells assessed as cell viability at 20 uM after 48 hrs by MTS assay; assay type: cell-based, Huh-7; conditions: read-out: Activity
[26] = Cytotoxicity against MDCK2-MDR1 cells assessed as cell viability at 20 uM after 48 hrs by MTS assay; assay type: ADME, cell-based, Canis lupus familiaris, MDCK-II; conditions: dog, read-out: Activity
[27] = Cytotoxicity against MDCK2-MDR1 cells assessed as cell viability after 24 hrs by MTS assay; assay type: ADME, cell-based; conditions: Canis lupus familiaris, MDCK-II
[28] = Cytotoxicity against human HeLa cells assessed as cell viability at 20 uM after 24 hrs by MTS assay; assay type: cell-based; conditions: read-out: Activity
[29] = Cytotoxicity against MDCK2-MDR1 cells assessed as cell viability after 48 hrs by MTS assay; assay type: ADME, cell-based; conditions: Canis lupus familiaris, MDCK-II

Structure (SMILES) | MIC95 (Klebsiella pneumoniae [1]) | MIC50 (Aspergillus fumigatus) | MIC80 (Pichia kudriavzevii) | MIC95 (Enterococcus faecalis) | MIC99 (Mycobacterium avium [2]) | MIC95 (Staphylococcus aureus [3]) | MIC99 [4] | MIC50 (Lichtheimia corymbifera) | MIC99 (Mycobacterium avium [5]) | MIC95 (Escherichia coli) | MIC99 (Mycobacterium kansasii [6]) | MIC80 (Trichosporon asahii) | MIC80 (Candida albicans) | MIC99 (Mycobacterium kansasii [7]) | MIC99 (Mycobacterium kansasii [8]) | MIC99 (Mycobacterium kansasii [9]) | MIC95 (Staphylococcus aureus [10]) | MIC99 [13] | MIC99 (Mycobacterium kansasii [14]) | MIC99 (Mycobacterium kansasii [15]) | further results
O=[N+]([O-])c1ccc(CSc2nnc(-c3ccc(Cl)cc3)o2)c([N+](=O)[O-])c1 | > 125 µM | > 125 µM | > 125 µM | > 125 µM | 8 µM (≈ 3.14 µg/mL) | > 125 µM | 2 µM (≈ 0.786 µg/mL) | > 125 µM | 16 µM (≈ 6.28 µg/mL) | > 125 µM | 2 µM (≈ 0.786 µg/mL) | > 125 µM | > 125 µM | 8 µM (≈ 3.14 µg/mL) | 4 µM (≈ 1.57 µg/mL) | 8 µM (≈ 3.14 µg/mL) | > 125 µM | 2 µM (≈ 0.786 µg/mL) | 4 µM (≈ 1.57 µg/mL) | 4 µM (≈ 1.57 µg/mL) | MIC95 (Pseudomonas aeruginosa): > 125 µM; MIC50 [11]: > 125 µM; MIC95 (Klebsiella pneumoniae [12]): > 125 µM; MIC80 (Candida tropicalis): > 125 µM; MIC80 (Nakaseomyces glabratus): > 125 µM; MIC95 [16]: > 125 µM
O=[N+]([O-])c1ccc(CSc2nnc(-c3ccc(Cl)cc3)s2)c([N+](=O)[O-])c1 | > 125 µM | > 125 µM | > 125 µM | > 125 µM | 4 µM (≈ 1.64 µg/mL) | > 125 µM | 4 µM (≈ 1.64 µg/mL) | > 125 µM | 8 µM (≈ 3.27 µg/mL) | > 125 µM | 1 µM (≈ 0.409 µg/mL) | > 125 µM | > 125 µM | 4 µM (≈ 1.64 µg/mL) | 2 µM (≈ 0.818 µg/mL) | 2 µM (≈ 0.818 µg/mL) | > 125 µM | 2 µM (≈ 0.818 µg/mL) | 4 µM (≈ 1.64 µg/mL) | 1 µM (≈ 0.409 µg/mL) | MIC95 (Pseudomonas aeruginosa): > 125 µM; MIC50 [11]: > 125 µM; MIC95 (Klebsiella pneumoniae [12]): > 125 µM; MIC80 (Candida tropicalis): > 125 µM; MIC80 (Nakaseomyces glabratus): > 125 µM; MIC95 [16]: > 125 µM
COc1cccc(-c2nnc(SCc3cc([N+](=O)[O-])cc([N+](=O)[O-])c3)o2)c1 | > 125 µM | > 125 µM | > 125 µM | > 125 µM | 16 µM (≈ 6.21 µg/mL) | > 125 µM | 0.125 µM (≈ 0.0485 µg/mL) | > 125 µM | 16 µM (≈ 6.21 µg/mL) | > 125 µM | 0.125 µM (≈ 0.0485 µg/mL) | > 125 µM | > 125 µM | 1 µM (≈ 0.388 µg/mL) | 0.25 µM (≈ 0.0971 µg/mL) | 0.5 µM (≈ 0.194 µg/mL) | > 125 µM | 0.125 µM (≈ 0.0485 µg/mL) | 0.5 µM (≈ 0.194 µg/mL) | 0.125 µM (≈ 0.0485 µg/mL) | viability at 24 h, 20 µM [17]: 89.6%; IC50 (HeLa [18]): > 20 µM; Activity (Salmonella typhimurium [19]): Non-toxic; viability at 24 h, 20 µM [20]: 105%; IC50 (HeLa [21]): 4.1 µM; viability at 48 h, 20 µM [22]: 16.4%; IC50 [23]: > 20 µM; Activity (Salmonella typhimurium [24]): Non-toxic; MIC95 (Pseudomonas aeruginosa): > 125 µM; viability at 48 h, 20 µM [25]: 47%; MIC50 [11]: > 125 µM; MIC95 (Klebsiella pneumoniae [12]): > 125 µM; viability at 48 h, 20 µM [26]: 10.5%; IC50 [27]: > 20 µM; MIC80 (Candida tropicalis): > 125 µM; viability at 24 h, 20 µM [28]: 74.2%; MIC80 (Nakaseomyces glabratus): > 125 µM; MIC95 [16]: > 125 µM
[N-]=[N+]=[N-].[Na+] [SODIUM AZIDE] | – | – | – | – | – | – | – | – | – | – | – | – | – | – | – | – | – | – | – | – | Activity (Salmonella typhimurium [24]): Toxic
O=[N+]([O-])c1cc(CSc2nnc(-c3ccccc3)s2)cc([N+](=O)[O-])c1 | – | – | – | – | 8 µM (≈ 3 µg/mL) | – | 0.125 µM (≈ 0.0468 µg/mL) | – | 16 µM (≈ 5.99 µg/mL) | – | 0.25 µM (≈ 0.0936 µg/mL) | – | – | 1 µM (≈ 0.374 µg/mL) | 0.5 µM (≈ 0.187 µg/mL) | 0.5 µM (≈ 0.187 µg/mL) | – | 0.06 µM (≈ 0.0225 µg/mL) | 1 µM (≈ 0.374 µg/mL) | 0.25 µM (≈ 0.0936 µg/mL) | viability at 24 h, 20 µM [17]: 84.3%; IC50 (HeLa [18]): > 20 µM; Activity (Salmonella typhimurium [19]): Non-toxic; IC50 [29]: 3.1 µM; viability at 24 h, 20 µM [20]: 97.8%; IC50 (HeLa [21]): 2.4 µM; viability at 48 h, 20 µM [22]: 15.9%; IC50 [23]: > 20 µM; Activity (Salmonella typhimurium [24]): Non-toxic; viability at 48 h, 20 µM [25]: 36.3%; viability at 48 h, 20 µM [26]: 7.3%; IC50 [27]: > 20 µM; viability at 24 h, 20 µM [28]: 78.5%
